Assay results published in US20250034150A1, “BTK INHIBITORS” (BIOGEN MA INC., priority 2021, published 2025).
Structures can show the parent of a compound that is named as a salt. Where two headings read alike, the source gives them in different places.

Columns and labels:
BTK = biological target: T1, BTK (Homo sapiens, UniProt Q06187); assay: In Vitro BTK Kinase Assay: Btk-PolyGAT-LS Assay; format: biochemical; conditions: active BTK enzyme 0.25 nM, polyGAT 100 nM, 30 minutes, TRF readout; read-out: In Vitro BTK Kinase Assay IC50 Score
T1 construct: purchased Upstate 14-552
T1 sequence (Q06187 whole entry): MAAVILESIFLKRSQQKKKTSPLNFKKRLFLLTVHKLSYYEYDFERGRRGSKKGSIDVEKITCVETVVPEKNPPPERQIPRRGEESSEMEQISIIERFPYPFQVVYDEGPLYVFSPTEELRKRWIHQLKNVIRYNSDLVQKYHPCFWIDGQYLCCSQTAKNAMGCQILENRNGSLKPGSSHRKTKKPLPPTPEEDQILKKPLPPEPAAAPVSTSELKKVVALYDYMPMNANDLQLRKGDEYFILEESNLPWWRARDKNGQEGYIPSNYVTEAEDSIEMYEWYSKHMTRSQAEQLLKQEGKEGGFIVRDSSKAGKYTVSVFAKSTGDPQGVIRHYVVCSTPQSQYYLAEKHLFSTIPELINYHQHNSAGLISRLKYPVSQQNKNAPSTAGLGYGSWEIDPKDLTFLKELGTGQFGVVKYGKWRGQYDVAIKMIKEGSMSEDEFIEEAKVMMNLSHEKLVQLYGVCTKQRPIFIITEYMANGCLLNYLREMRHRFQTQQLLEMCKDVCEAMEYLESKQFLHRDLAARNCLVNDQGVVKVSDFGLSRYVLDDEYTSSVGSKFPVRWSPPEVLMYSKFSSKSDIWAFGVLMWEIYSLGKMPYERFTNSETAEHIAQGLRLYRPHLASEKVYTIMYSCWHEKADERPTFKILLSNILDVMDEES
Method in brief: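 Active BTK at 0.25 nM phosphorylated 100 nM fluorescein-polyGAT peptide at 10 μM ATP for 30 minutes. Buffer was Tris pH 7.5 with MgCl2, DTT, Triton X-100 and casein, and reactions were stopped with EDTA. Phospho-peptide was detected by Tb-PY20 antibody TR-FRET, and IC50 came from a four-parameter fit normalized to DMSO and EDTA controls.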

[1] = tested on: CD69 expression on CD19+ B cells in human whole blood; assay: In Vitro whole blood CD69 Assay; format: cell-based; conditions: B-cell, read-out: In Vitro HWB CD69 Assay IC50 Score
Method in brief: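 Heparinized healthy-donor human whole blood was preincubated with compound (0.1% DMSO) for 30 min at 37 °C. Stimulation used 0.1 µg/mL anti-IgD-dextran or 20 µg/mL rabbit F(ab′)2 anti-IgD for 18–22 h at 37 °C. CD69 on gated CD19+ B cells was then measured by flow cytometry.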

[2] = human heparinized whole blood, anti-human IgD stimulation overnight, CD19+ B cells, flow cytometry

| Compound | IC50 (BTK) [nM] | IC50 [1, 2] [nM] | IC50 ([1]; Homo sapiens) [nM] |
| --- | --- | --- | --- |
| Cn1cc(-c2cn3nccc3c(-c3ccc(CNC(=O)c4ccn(C(C)(C)C)n4)c(F)c3F)n2)cn1 [Example 91, 1-(tert-butyl)-N-(2,3-difluoro-4-(6-(1-methyl-1H-pyrazol-4-yl)pyrazolo[1,5-a]pyrazin-4-yl)benzyl)-1H-pyrazole-3-carboxamide] | 1 to 10 | 1000 to 10000 | – |
| Cn1cc(-c2cn3nccc3c(-c3ccc(CNC(=O)c4cnn(C(C)(C)C)c4)c(F)c3)n2)cn1 [Example 10, 1-(tert-butyl)-N-(2-fluoro-4-(6-(1-methyl-1H-pyrazol-4-yl)pyrazolo[1,5-a]pyrazin-4-yl)benzyl)-1H-pyrazole-4-carboxamide] | < 1 | < 1000 | – |
| Cn1cc(-c2cn3nccc3c(-c3cc(F)c(CNC(=O)c4noc(C(C)(C)C)n4)cc3F)n2)cn1 [Example 84, 5-(tert-butyl)-N-(2,5-difluoro-4-(6-(1-methyl-1H-pyrazol-4-yl)pyrazolo[1,5-a]pyrazin-4-yl)benzyl)-1,2,4-oxadiazole-3-carboxamide] | < 1 | < 1000 | – |
| Cn1cc(-c2cc3nccn3c(-c3ccc(CNC(=O)c4nc(C(C)(C)C)no4)cc3)n2)cn1 [Example 64, 3-(tert-butyl)-N-(4-(7-(1-methyl-1H-pyrazol-4-yl)imidazo[1,2-c]pyrimidin-5-yl)benzyl)-1,2,4-oxadiazole-5-carboxamide] | < 1 | < 1000 | – |
| Cn1cc(-c2cn3nccc3c(-c3ccc(CNC(=O)c4cnn(C(C)(C)C)n4)cc3F)n2)cn1 [Example 113, 2-(tert-butyl)-N-(3-fluoro-4-(6-(1-methyl-1H-pyrazol-4-yl)pyrazolo[1,5-a]pyrazin-4-yl)benzyl)-2H-1,2,3-triazole-4-carboxamide] | 1 to 10 | 1000 to 10000 | – |
| Cn1cc(-c2cn3nccc3c(-c3ccc(CNC(=O)c4noc(C(C)(C)CF)n4)cc3)n2)cn1 [Example 22, 5-(1-fluoro-2-methylpropan-2-yl)-N-(4-(6-(1-methyl-1H-pyrazol-4-yl)pyrazolo[1,5-a]pyrazin-4-yl)benzyl)-1,2,4-oxadiazole-3-carboxamide] | < 1 | < 1000 | – |
| C[C@@H]1C[C@@H](CNC(=O)c2cn(C(C)(C)C)nn2)CCN1c1nc(-c2cnn(C)c2)cn2nccc12 (single isomer, unassigned) [Example 143] | 1 to 10 | 1000 to 10000 | – |
| Cn1cc(-c2cn3nccc3c(-c3ccc(CNC(=O)c4coc(C(C)(C)C)n4)c(F)c3)n2)cn1 [Example 12, 2-(tert-butyl)-N-(2-fluoro-4-(6-(1-methyl-1H-pyrazol-4-yl)pyrazolo[1,5-a]pyrazin-4-yl)benzyl)oxazole-4-carboxamide] | < 1 | < 1000 | – |
| Cc1cc(-c2cc(-c3cnn(C)c3)cn3nccc23)ccc1CNC(=O)c1noc(C2(C)CC2)n1 [Example 65, N-(2-methyl-4-(6-(1-methyl-1H-pyrazol-4-yl)pyrazolo[1,5-a]pyridin-4-yl)benzyl)-5-(1-methylcyclopropyl)-1,2,4-oxadiazole-3-carboxamide] | < 1 | – | < 1000 |
| Cn1cc(-c2cn3nccc3c(N3CC[C@@H](CNC(=O)c4noc(C(C)(C)C)n4)[C@@H](F)C3)n2)cn1 (single isomer, unassigned) [Example 156] | 1 to 10 | < 1000 | – |
| Cn1cc(-c2cn3nccc3c(N3CCC(F)(CNC(=O)c4noc(C(C)(C)C)n4)CC3)n2)cn1 [Example 160, 5-(tert-butyl)-N-((4-fluoro-1-(6-(1-methyl-1H-pyrazol-4-yl)pyrazolo[1,5-a]pyrazin-4-yl)piperidin-4-yl)methyl)-1,2,4-oxadiazole-3-carboxamide] | 1 to 10 | 1000 to 10000 | – |
| Cn1cc(-c2cn3nccc3c(-c3ccc(CNC(=O)c4nnn(C(C)(C)C)n4)cc3F)n2)cn1 [Example 114, 2-(tert-butyl)-N-(3-fluoro-4-(6-(1-methyl-1H-pyrazol-4-yl)pyrazolo[1,5-a]pyrazin-4-yl)benzyl)-2H-tetrazole-5-carboxamide] | < 1 | < 1000 | – |
| COCCOc1cn2nccc2c(-c2ccc(CNC(=O)c3nc(C4(C)CC4)no3)c(C)c2)n1 [Example 133, N-(4-(6-(2-methoxyethoxy)pyrazolo[1,5-a]pyrazin-4-yl)-2-methylbenzyl)-3-(1-methylcyclopropyl)-1,2,4-oxadiazole-5-carboxamide] | 1 to 10 | 1000 to 10000 | – |
| Cn1cc(-c2cn3nccc3c(-c3ccc(CNC(=O)c4nnn(C(C)(C)C)n4)nc3)n2)cn1 [Example 115, 2-(tert-butyl)-N-((5-(6-(1-methyl-1H-pyrazol-4-yl)pyrazolo[1,5-a]pyrazin-4-yl)pyridin-2-yl)methyl)-2H-tetrazole-5-carboxamide] | 1 to 10 | 1000 to 10000 | – |
| Cn1cc(-c2cn3nccc3c(-c3ccc(CNC(=O)c4coc(C(C)(C)C)n4)cc3F)n2)cn1 [Example 109] | 1 to 10 | 1000 to 10000 | – |

Further lines, with some results ahead:

| IC50 (BTK) [nM] | IC50 [1, 2] [nM] | Compound | IC50 ([1]; Homo sapiens) [nM] |
| --- | --- | --- | --- |
| 1 to 10 | 1000 to 10000 | Cn1cc(-c2cn3nccc3c(N3CCC(CNC(=O)c4noc(C5(C)CC5)n4)CC3)n2)cn1 [Example 137, N-((1-(6-(1-methyl-1H-pyrazol-4-yl)pyrazolo[1,5-a]pyrazin-4-yl)piperidin-4-yl)methyl)-5-(1-methylcyclopropyl)-1,2,4-oxadiazole-3-carboxamide] | – |
| 1 to 10 | < 1000 | COCCOc1cn2nccc2c(-c2ccc(CNC(=O)c3cn(C(C)(C)C)nn3)c(C)c2)n1 [Example 122, 1-(tert-butyl)-N-(4-(6-(2-methoxyethoxy)pyrazolo[1,5-a]pyrazin-4-yl)-2-methylbenzyl)-1H-1,2,3-triazole-4-carboxamide] | – |
| 10 to 1000 | 1000 to 10000 | Cn1cc(-c2cn3nccc3c(N3CCC(C)(CNC(=O)c4cnc(C(C)(C)C)o4)CC3)n2)cn1 [Example 45, 2-(tert-butyl)-N-((4-methyl-1-(6-(1-methyl-1H-pyrazol-4-yl)pyrazolo[1,5-a]pyrazin-4-yl)piperidin-4-yl)methyl)oxazole-5-carboxamide] | – |
| 1 to 10 | 1000 to 10000 | Cn1cc(-c2cc3nccn3c(-c3ccc(CNC(=O)c4noc(C5(C)CC5)n4)cc3)n2)cn1 [Example 60, N-(4-(7-(1-methyl-1H-pyrazol-4-yl)imidazo[1,2-c]pyrimidin-5-yl)benzyl)-5-(1-methylcyclopropyl)-1,2,4-oxadiazole-3-carboxamide] | – |
| 1 to 10 | 1000 to 10000 | Cn1cc(-c2cn3nccc3c(N3CCC(F)(CNC(=O)c4noc(C5(C)CC5)n4)CC3)n2)cn1 [Example 161, N-((4-fluoro-1-(6-(1-methyl-1H-pyrazol-4-yl)pyrazolo[1,5-a]pyrazin-4-yl)piperidin-4-yl)methyl)-5-(1-methylcyclopropyl)-1,2,4-oxadiazole-3-carboxamide trifluoroacetate] | – |
| < 1 | < 1000 | Cn1cc(-c2cc3nccn3c(-c3ccc(CNC(=O)c4nnn(C(C)(C)C)n4)cc3)n2)cn1 [Example 58, 2-(tert-butyl)-N-(4-(7-(1-methyl-1H-pyrazol-4-yl)imidazo[1,2-c]pyrimidin-5-yl)benzyl)-2H-tetrazole-5-carboxamide] | – |
| 1 to 10 | 1000 to 10000 | C[C@@H]1CN(c2nc(-c3cnn(C)c3)cn3nccc23)CC[C@@H]1CNC(=O)c1noc(C2(C)CC2)n1 (single isomer, unassigned) [Example 146] | – |
| 1 to 10 | 1000 to 10000 | Cn1cc(-c2cn3nccc3c(N3CC[C@H](CNC(=O)c4noc(C(C)(C)C)n4)[C@H](F)C3)n2)cn1 (single isomer, unassigned) [Example 155] | – |
| 10 to 1000 | 1000 to 10000 | Cn1cc(-c2cc3nccn3c(-c3ccc(CNC(=O)c4ccn(C(C)(C)C)n4)cc3)n2)cn1 [Example 56, 1-(tert-butyl)-N-(4-(7-(1-methyl-1H-pyrazol-4-yl)imidazo[1,2-c]pyrimidin-5-yl)benzyl)-1H-pyrazole-3-carboxamide] | – |
| < 1 | < 1000 | Cc1cc(-c2nc(-c3cnn(C)c3)cc3nccn23)ccc1CNC(=O)c1noc(C(C)(C)C)n1 [Example 78, 5-(tert-butyl)-N-(2-methyl-4-(7-(1-methyl-1H-pyrazol-4-yl)imidazo[1,2-c]pyrimidin-5-yl)benzyl)-1,2,4-oxadiazole-3-carboxamide] | – |
| 10 to 1000 | 1000 to 10000 | CN1CCN(c2cn3nccc3c(-c3ccc(CNC(=O)c4cn(C(C)(C)C)nn4)c(F)c3)n2)CC1 [Example 128, 1-(tert-butyl)-N-(2-fluoro-4-(6-(4-methylpiperazin-1-yl)pyrazolo[1,5-a]pyrazin-4-yl)benzyl)-1H-1,2,3-triazole-4-carboxamide trifluoroacetate] | – |
| < 1 | < 1000 | Cc1c(CNC(=O)c2noc(C(C)(C)C)n2)ccc(-c2nc(-c3cnn(C)c3)cc3nccn23)c1F [Example 79, 5-(tert-butyl)-N-(3-fluoro-2-methyl-4-(7-(1-methyl-1H-pyrazol-4-yl)imidazo[1,2-c]pyrimidin-5-yl)benzyl)-1,2,4-oxadiazole-3-carboxamide] | – |
| 1 to 10 | 1000 to 10000 | Cn1cc(-c2cc(-c3ccc(CNC(=O)c4ccn(C(C)(C)C)n4)c(F)c3)c3ccnn3c2)cn1 [Example 70, 1-(tert-butyl)-N-(2-fluoro-4-(6-(1-methyl-1H-pyrazol-4-yl)pyrazolo[1,5-a]pyridin-4-yl)benzyl)-1H-pyrazole-3-carboxamide] | – |
